Assay [1] relates to C6. Nature of the assay: Inhibition of cell proliferation of rat C6 cells assessed as cell viability after 72 hrs by sulforhodamine B assay. Type of assay: functional, cell-based. To be noted: for IC50: C6, 72 h. (The SRB assay estimates cell density from bound dye.)
For assay [2], the system named is U-251. Nature of the assay: Inhibition of cell proliferation of human U251 cells assessed as cell viability at 100 uM after 72 hrs by sulforhodamine B assay. Format: functional. To be noted: U-251, 72 h, read-out: Activity.
Assay [3] relates to U-251. Nature of the assay: Inhibition of cell proliferation of human U251 cells assessed as cell viability after 72 hrs by sulforhodamine B assay. To be noted: for IC50: U-251, 72 h. Type of assay: functional, cell-based.
Assay [4] relates to C6. The assay can be described thus: Inhibition of cell proliferation of rat C6 cells assessed as cell viability at 100 uM after 72 hrs by sulforhodamine B assay. Format: functional. To be noted: C6, 72 h, read-out: Activity.
The subject of a further assay is U-87MG ATCC. The assay can be described thus: Inhibition of cell proliferation of human U87MG cells assessed as cell viability after 72 hrs by sulforhodamine B assay. Format: functional, cell-based.

IC50, viability and inhibition data for 19 molecules are collected here from ChEMBL document CHEMBL3351906, “Bioactive triterpenoid saponins and phenolic compounds against glioma cells” (Bioorg Med Chem Lett, 2014).

The structures appear in SMILES notation. Active and inactive are the calls of the source. No cut-off for these calls is given here.

As usually defined, the IC50 is the concentration that inhibits the measured activity by half. For `C/C=C(\C)C(=O)O[C@H]1[C@H](O)[C@]2(COC(C)=O)[C@H](O)C[C@]3(C)C(=CC[C@@H]4[C@@]5(C)CC[C@H](O[C@@H]6O[C@H](C(=O)OC)[C@@H](O[C@@H]7O[C@H](CO)[C@@H](O)[C@H](O)[C@H]7O)[C@H](O)[C@H]6O[C@@H]6O[C@H](CO)[C@@H](O)[C@H](O)[C@H]6O)[C@](C)(CO)[C@@H]5CC[C@]43C)[C@@H]2CC1(C)C`, the results for the IC50 in the assay with C6 [1] and in the assay with U-251 [3] were 60.7 µM and 48.4 µM, respectively. For the same molecule, the viability at 100 µM in the assay with U-251 [2] worked out at 26.2%.
With `C=C[C@@](C)(O)CC/C=C(\CO)C(=O)OC[C@H]1O[C@@H](OC(=O)[C@]23CCC(C)(C)C[C@H]2C2=CC[C@@H]4[C@@]5(C)CC[C@H](O[C@@H]6O[C@H](CO[C@@H]7OC[C@H](O)[C@H](O)[C@H]7O[C@@H]7OC[C@@H](O)[C@H](O)[C@H]7O)[C@@H](O)[C@H](O)[C@H]6O)C(C)(C)[C@@H]5CC[C@@]4(C)[C@]2(C)C[C@H]3O)[C@H](O[C@@H]2O[C@@H](C)[C@H](O[C@@H]3OC[C@@H](O)[C@H](O[C@@H]4OC[C@@H](O)[C@H](O)[C@H]4O)[C@H]3O)[C@@H](O)[C@H]2O[C@@H]2O[C@H](CO)[C@H](O)[C@H](O)[C@H]2O)[C@@H](O)[C@@H]1O`, the results for the IC50 in the assay on C6 [1] and in the assay with U-251 [3] were 18.1 µM and 19.2 µM, respectively. Further, in the assay with U-251 [2], the viability at 100 µM is 28.6%.
In the case of `C[C@@H]1O[C@@H](OC[C@H]2O[C@@H](OC(=O)[C@]34CCC(C)(C)C[C@H]3C3=CC[C@@H]5[C@@]6(C)CC[C@H](O[C@@H]7O[C@H](CO[C@@H]8OC[C@H](O)[C@H](O)[C@H]8O[C@@H]8OC[C@@H](O)[C@H](O)[C@H]8O)[C@@H](O)[C@H](O)[C@H]7O)C(C)(C)[C@@H]6CC[C@@]5(C)[C@]3(C)CC4)[C@H](O[C@@H]3O[C@@H](C)[C@H](O[C@@H]4OC[C@@H](O)[C@H](O[C@@H]5OC[C@@H](O)[C@H](O)[C@H]5O)[C@H]4O)[C@@H](O)[C@H]3O)[C@@H](O)[C@@H]2O)[C@H](O)[C@H](O)[C@H]1O`, the viability at 100 µM with C6 [4] is 97.2%; in the assay with U-251 [2], 83.9%. Besides, the inhibition entry in the assay with U-87MG ATCC, with C6 [1] and in the assay on U-251 [3] was “inactive” throughout.
As for `CC1(C)CC[C@]2(C(=O)O)[C@H](O)C[C@]3(C)C(=CC[C@@H]4[C@@]5(C)CC[C@H](O[C@@H]6O[C@H](CO[C@@H]7OC[C@H](O)[C@H](O)[C@H]7O[C@@H]7OC[C@@H](O)[C@H](O)[C@H]7O)[C@@H](O)[C@H](O)[C@H]6O)C(C)(C)[C@@H]5CC[C@]43C)[C@@H]2C1`, the viability at 100 µM with C6 [4] was found to be 86.2%; in the assay with U-251 [2], 88.8%. Moreover, the inhibition entry in the assay on U-87MG ATCC, in the assay with C6 [1] and in the assay with U-251 [3] was “inactive” in each case.
As to `C/C=C(\C)C(=O)O[C@H]1[C@H](O)[C@]2(COC(C)=O)[C@H](O)C[C@]3(C)C(=CC[C@@H]4[C@@]5(C)CC[C@H](O[C@@H]6O[C@H](C(=O)O)[C@@H](O[C@@H]7O[C@H](CO)[C@@H](O)[C@H](O)[C@H]7O)[C@H](O)[C@H]6O[C@@H]6O[C@H](CO)[C@@H](O)[C@H](O)[C@H]6O)[C@](C)(CO)[C@@H]5CC[C@]43C)[C@@H]2CC1(C)C` [ISOESCIN IA], the half-maximal inhibitory concentration (IC50) is 54.5 µM in the assay with C6 [1] and 80.4 µM in the assay on U-251 [3]. In the assay on U-251 [2], the viability at 100 µM stood at 61.1%.
The like results for `C=C[C@@](C)(O)CC/C=C(\C)C(=O)O[C@H]1[C@H](OC[C@H]2O[C@@H](OC(=O)[C@]34CCC(C)(C)C[C@@H]3C3=CC[C@@H]5[C@@]6(C)CC[C@H](O[C@@H]7O[C@H](CO[C@@H]8OC[C@H](O)[C@H](O)[C@H]8O[C@@H]8OC[C@@H](O)[C@H](O)[C@H]8O)[C@@H](O)[C@H](O)[C@H]7O)C(C)(C)[C@@H]6CC[C@@]5(C)[C@]3(C)C[C@H]4O)[C@H](O[C@@H]3O[C@@H](C)[C@H](O[C@@H]4OC[C@@H](O)[C@H](O[C@@H]5OC[C@@H](O)[C@H](O)[C@H]5O)[C@H]4O)[C@@H](O)[C@H]3O)[C@@H](O)[C@@H]2O)O[C@@H](C)[C@H](O)[C@H]1OC(=O)/C(=C/CC[C@](C)(O)C=C)CO` [GLEDITSIA SAPONIN C] were, in that order, 17.6 µM, 46.8 µM and 34.9%.
On to `CC(C)=CCC[C@@H](C)[C@H]1CC[C@]2(C)[C@@H]1[C@H](O)C[C@@H]1[C@@]3(C)CC[C@H](O)C(C)(C)[C@@H]3[C@@H](O)C[C@]12C`, for which the IC50 with C6 [1] was 49.7 µM; in the assay with U-251 [3], 117 µM. In the assay with U-251 [2], the viability at 100 µM came to 49.4%.
For the molecule `C=CC(C)(O)CC/C=C(\CO)C(=O)O[C@H]1[C@H](O)[C@@H](COC(=O)/C(C)=C/CC[C@](C)(O)C=C)O[C@@H](OC(=O)[C@]23CCC(C)(C)C[C@H]2C2=CC[C@@H]4[C@@]5(C)CC[C@H](O[C@@H]6O[C@H](CO[C@@H]7OC[C@H](O)[C@H](O)[C@H]7O[C@@H]7OC[C@@H](O)[C@H](O)[C@H]7O)[C@@H](O)[C@H](O)[C@H]6O)C(C)(C)[C@@H]5CC[C@@]4(C)[C@]2(C)CC3)[C@@H]1O[C@@H]1O[C@@H](C)[C@H](O[C@@H]2OC[C@@H](O)[C@H](O[C@@H]3OC[C@@H](O)[C@H](O)[C@H]3O)[C@H]2O)[C@@H](O)[C@H]1O` (some centres not stated), the IC50 with C6 [1] amounted to 13.6 µM; in the assay on U-251 [3], 15.2 µM. Also, the viability at 100 µM in the assay with U-251 [2] came to 9.84%.
The corresponding values for `C=CC(C)(O)CC/C=C(\CO)C(=O)O[C@H]1[C@H](OC[C@H]2O[C@@H](OC(=O)[C@]34CCC(C)(C)C[C@H]3C3=CC[C@@H]5[C@@]6(C)CC[C@H](O[C@@H]7O[C@H](CO[C@@H]8OC[C@H](O)[C@H](O)[C@H]8O[C@@H]8OC[C@@H](O)[C@H](O)[C@H]8O)[C@@H](O)[C@H](O)[C@H]7O)C(C)(C)[C@@H]6CC[C@@]5(C)[C@]3(C)C[C@H]4O)[C@H](O[C@@H]3O[C@@H](C)[C@H](O[C@@H]4OC[C@@H](O)[C@H](O[C@@H]5OC[C@@H](O)[C@H](O)[C@H]5O)[C@H]4O)[C@@H](O)[C@H]3O)[C@@H](O)[C@@H]2O)O[C@@H](C)[C@H](O)[C@H]1OC(=O)/C(C)=C/CC[C@@](C)(O)C=C` (some centres not stated) are 30.3 µM, 43.1 µM and 29.2%.
Take `O=C(CCc1ccc(O)c(O)c1)OCCc1ccc(O)c(O)c1`: the results for the half-inhibitory concentration (IC50) in the assay on C6 [1] and in the assay on U-251 [3] were 6.16 µM and 24.3 µM, respectively. Besides, the viability at 100 µM with U-251 [2] came out at 55%.
On to `CC(C)=CCC[C@@](C)(O)[C@H]1CC[C@]2(C)[C@@H]1[C@H](O)C[C@@H]1[C@@]3(C)CC[C@H](O)C(C)(C)[C@@H]3[C@@H](O[C@@H]3O[C@H](CO)[C@@H](O)[C@H](O)[C@H]3O[C@@H]3O[C@@H](C)[C@H](O)[C@@H](O)[C@H]3O)C[C@]12C`, for which the viability at 100 µM in the assay on C6 [4] came to 95.5%; in the assay on U-251 [2] it was 99%.
For the molecule `O=C(/C=C/c1ccc(O)c(O)c1)O[C@H](Cc1ccc(O)c(O)c1)C(=O)O` [ROSMARINIC ACID], the results for the viability at 100 µM in the assay with C6 [4] and in the assay on U-251 [2] were 54.5% and 70.8%, respectively.
Turning to `O=c1c(O)c(-c2ccc(O)c(O)c2)oc2cc(O)cc(O)c12` [QUERCETIN], the IC50 is 18.4 µM with C6 [1] and 77.8 µM with U-251 [3]. In the assay with U-251 [2], the viability at 100 µM turned out to be 62.9%.
`CC(C)=CCC[C@](C)(O)[C@H]1CC[C@]2(C)[C@@H]1[C@H](O)C[C@@H]1[C@@]3(C)CC[C@H](O)C(C)(C)[C@@H]3[C@@H](O[C@@H]3O[C@H](CO)[C@@H](O)[C@H](O)[C@H]3O[C@@H]3OC[C@@H](O)[C@H](O)[C@H]3O)C[C@]12C`: the figures for the viability at 100 µM in the assay with C6 [4] and in the assay on U-251 [2] were 59.3% and 108%, respectively.
For `C=CC(C)(O)CC/C=C(\CO)C(=O)OC[C@H]1O[C@@H](OC(=O)[C@]23CCC(C)(C)C[C@H]2C2=CC[C@@H]4[C@@]5(C)CC[C@H](O[C@@H]6O[C@H](CO[C@@H]7OC[C@H](O)[C@H](O)[C@H]7O[C@@H]7OC[C@@H](O)[C@H](O)[C@H]7O)[C@@H](O)[C@H](O)[C@H]6O)C(C)(C)[C@@H]5CC[C@@]4(C)[C@]2(C)CC3)[C@H](O[C@@H]2O[C@@H](C)[C@H](O[C@@H]3OC[C@@H](O)[C@H](O[C@@H]4OC[C@@H](O)[C@H](O)[C@H]4O)[C@H]3O)[C@@H](O)[C@H]2O)[C@@H](O)[C@@H]1O` (some centres not stated), the IC50 with C6 [1] was determined as 31.7 µM; with U-251 [3], 44.5 µM. For the same molecule, in the assay with U-251 [2], the viability at 100 µM worked out at 32.9%.
On to `CC(C)=CCC[C@](C)(O[C@@H]1O[C@H](CO[C@@H]2OC[C@@H](O)[C@H](O)[C@H]2O)[C@@H](O)[C@H](O)[C@H]1O)[C@H]1CC[C@]2(C)[C@@H]1[C@H](O)C[C@@H]1[C@@]3(C)CC[C@H](O[C@@H]4O[C@H](CO)[C@@H](O)[C@H](O)[C@H]4O[C@@H]4O[C@H](CO)[C@@H](O)[C@H](O)[C@H]4O)C(C)(C)[C@@H]3CC[C@]12C` [GINSENOSIDE RB3], for which the viability at 100 µM with C6 [4] is 57.8%; with U-251 [2], 95.1%.
In the case of `CC(=O)Oc1ccc(CCOC(=O)CCc2ccc(OC(C)=O)c(OC(C)=O)c2)cc1OC(C)=O`, the values for the half-inhibitory concentration (IC50) in the assay with C6 [1] and in the assay on U-251 [3] were 12.8 µM and 37.2 µM, respectively. In the assay on U-251 [2], the viability at 100 µM stood at 43.5%.
For `CC(=O)Oc1cc(CCOC(=O)CCc2ccc(O)c(OC(C)=O)c2)ccc1O`, the values for the half-maximal inhibitory concentration (IC50) in the assay with C6 [1] and in the assay with U-251 [3] were 8.47 µM and 26.8 µM, respectively. Moreover, in the assay on U-251 [2], the viability at 100 µM was 39.8%.
The like results for `C/C=C(/C)C(=O)O[C@H]1[C@H](O)[C@]2(COC(C)=O)[C@H](O)C[C@]3(C)C(=CC[C@@H]4[C@@]5(C)CC[C@H](O[C@@H]6O[C@H](C(=O)O)[C@@H](O[C@@H]7O[C@H](CO)[C@@H](O)[C@H](O)[C@H]7O)[C@H](O)[C@H]6O[C@@H]6O[C@H](CO)[C@@H](O)[C@H](O)[C@H]6O)[C@](C)(CO)[C@@H]5CC[C@]43C)[C@@H]2CC1(C)C` [ISOESCIN IB] were, in that order, 77.8 µM, 68.9 µM and 29.7%.
